From PubChem BioAssay (NCI)
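GI50: concentration for 50% inhibition of growth. Definition used: TGI = concentration required for complete inhibition of growth.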

Tests used:
Test in all cases: DTP human tumour cell line panel, 384-well format
[1] = tested on: 786-0 renal
[2] = tested on: A498 renal
[3] = tested on: A549 NSCLC
[4] = tested on: ACHN renal
[5] = tested on: BT-549 breast
[6] = tested on: CAKI-1 renal
[7] = tested on: CCRF-CEM leukemia
[8] = tested on: COLO 205 colon
[9] = tested on: DU-145 prostate
[10] = tested on: HCC-2998 colon
[11] = tested on: HCT-116 colon
[12] = tested on: HCT-15 colon
[13] = tested on: HL-60(TB) leukemia
[14] = tested on: HOP-62 NSCLC
[15] = tested on: HOP-92 NSCLC
[16] = tested on: HT29 colon
[17] = tested on: IGROV1 ovarian
[18] = tested on: K-562 leukemia
[19] = tested on: KM12 colon
[20] = tested on: LOX IMVI melanoma
[21] = tested on: M14 melanoma
[22] = tested on: MALME-3M melanoma
[23] = tested on: MCF7 breast
[24] = tested on: MDA-MB-231 breast
[25] = tested on: MDA-MB-435 melanoma
[26] = tested on: MDA-MB-468 breast
[27] = tested on: MOLT-4 leukemia
[28] = tested on: NCI-H226 lung
[29] = tested on: NCI-H23 lung
[30] = tested on: NCI-H322M lung
[31] = tested on: NCI-H460 NSCLC
[32] = tested on: NCI-H522 lung
[33] = tested on: NCI/ADR-RES ovarian
[34] = tested on: OVCAR-3 ovarian
[35] = tested on: OVCAR-4 ovarian
[36] = tested on: OVCAR-5 ovarian
[37] = tested on: OVCAR-8 ovarian
[38] = tested on: PC-3 prostate
[39] = tested on: RXF 393 renal
[40] = tested on: SF-268 CNS
[41] = tested on: SF-295 CNS
[42] = tested on: SF-539 CNS
[43] = tested on: SK-MEL-2 melanoma
[44] = tested on: SK-MEL-28 melanoma
[45] = tested on: SK-MEL-5 melanoma
[46] = tested on: SK-OV-3 ovarian
[47] = tested on: SN12C renal
[48] = tested on: SNB-19 CNS
[49] = tested on: SR leukemia
[50] = tested on: SW-620 colon
[51] = tested on: T-47D breast
[52] = tested on: TK-10 renal
[53] = tested on: U251 glioblastoma
[54] = tested on: UACC-257 melanoma
[55] = tested on: UACC-62 melanoma
[56] = tested on: UO-31 renal

SMILES: CCN(C(=O)c1cc(F)ccc1Oc1cncnc1N1CC2(CCN(CC3CCC(NS(=O)(=O)CC)CC3)CC2)C1)C(C)C (configuration not stated)
- GI50 [1]: > 100 µM
- TGI [1]: > 100 µM
- GI50 [2]: 77.3 µM
- TGI [2]: > 100 µM
- GI50 [3]: > 100 µM
- TGI [3]: > 100 µM
- GI50 [4]: > 100 µM
- TGI [4]: > 100 µM
- GI50 [5]: 92.7 µM
- TGI [5]: > 100 µM
- GI50 [6]: > 100 µM
- TGI [6]: > 100 µM
- GI50 [7]: 10.1 µM
- TGI [7]: 43.1 µM
- GI50 [8]: 78.3 µM
- TGI [8]: > 100 µM
- GI50 [9]: > 100 µM
- TGI [9]: > 100 µM
- GI50 [10]: 2.94 µM
- TGI [10]: > 100 µM
- GI50 [11]: > 100 µM
- TGI [11]: > 100 µM
- GI50 [12]: > 100 µM
- TGI [12]: > 100 µM
- GI50 [13]: > 100 µM
- TGI [13]: > 100 µM
- GI50 [14]: > 100 µM
- TGI [14]: > 100 µM
- GI50 [15]: 2.2 µM
- TGI [15]: 41.5 µM
- GI50 [16]: > 100 µM
- TGI [16]: > 100 µM
- GI50 [17]: > 100 µM
- TGI [17]: > 100 µM
- GI50 [18]: > 100 µM
- TGI [18]: > 100 µM
- GI50 [19]: > 100 µM
- TGI [19]: > 100 µM
- GI50 [20]: > 100 µM
- TGI [20]: > 100 µM
- GI50 [21]: > 100 µM
- TGI [21]: > 100 µM
- GI50 [22]: > 100 µM
- TGI [22]: > 100 µM
- GI50 [23]: > 100 µM
- TGI [23]: > 100 µM
- GI50 [24]: 18.7 µM
- TGI [24]: > 100 µM
- GI50 [25]: > 100 µM
- TGI [25]: > 100 µM
- GI50 [26]: 65.5 µM
- TGI [26]: > 100 µM
- GI50 [27]: 1.17 µM
- TGI [27]: 3.67 µM
- GI50 [28]: > 100 µM
- TGI [28]: > 100 µM
- GI50 [29]: > 100 µM
- TGI [29]: > 100 µM
- GI50 [30]: > 100 µM
- TGI [30]: > 100 µM
- GI50 [31]: > 100 µM
- TGI [31]: > 100 µM
- GI50 [32]: 92.3 µM
- TGI [32]: > 100 µM
- GI50 [33]: > 100 µM
- TGI [33]: > 100 µM
- GI50 [34]: 63.5 µM
- TGI [34]: > 100 µM
- GI50 [35]: 82.6 µM
- TGI [35]: > 100 µM
- GI50 [36]: > 100 µM
- TGI [36]: > 100 µM
- GI50 [37]: > 100 µM
- TGI [37]: > 100 µM
- GI50 [38]: > 100 µM
- TGI [38]: > 100 µM
- GI50 [39]: 0.753 µM
- TGI [39]: > 100 µM
- GI50 [40]: > 100 µM
- TGI [40]: > 100 µM
- GI50 [41]: > 100 µM
- TGI [41]: > 100 µM
- GI50 [42]: > 100 µM
- TGI [42]: > 100 µM
- GI50 [43]: 24.5 µM
- TGI [43]: > 100 µM
- GI50 [44]: > 100 µM
- TGI [44]: > 100 µM
- GI50 [45]: > 100 µM
- TGI [45]: > 100 µM
- GI50 [46]: > 100 µM
- TGI [46]: > 100 µM
- GI50 [47]: > 100 µM
- TGI [47]: > 100 µM
- GI50 [48]: > 100 µM
- TGI [48]: > 100 µM
- GI50 [49]: 81.2 µM
- TGI [49]: > 100 µM
- GI50 [50]: > 100 µM
- TGI [50]: > 100 µM
- GI50 [51]: 72.3 µM
- TGI [51]: > 100 µM
- GI50 [52]: > 100 µM
- TGI [52]: > 100 µM
- GI50 [53]: > 100 µM
- TGI [53]: > 100 µM
- GI50 [54]: > 100 µM
- TGI [54]: > 100 µM
- GI50 [55]: > 100 µM
- TGI [55]: > 100 µM
- GI50 [56]: > 100 µM
- TGI [56]: > 100 µM
